Source: ChEMBL document CHEMBL4507315 (2021)

Assays:
[1] = biological target: Serine/threonine-protein kinase LATS1 (Homo sapiens) (UniProt O95835); details: Compound concentration 100.0 nM
[2] = biological target: Ribosomal protein S6 kinase beta-1 (Homo sapiens) (UniProt P23443); details: Compound concentration 100.0 nM
[3] = biological target: Mitogen-activated protein kinase kinase kinase 7 (Homo sapiens) (UniProt O43318); details: Compound concentration 100.0 nM
[4] = biological target: Serine/threonine-protein kinase NIM1 (Homo sapiens) (UniProt Q8IY84); details: Compound concentration 100.0 nM
[5] = biological target: Serine/threonine-protein kinase ULK3 (Homo sapiens) (UniProt Q6PHR2); details: Compound concentration 100.0 nM
[6] = biological target: Cyclin-dependent kinase 2 (Homo sapiens) (UniProt P24941); details: Compound concentration 100.0 nM
[7] = biological target: Tyrosine-protein kinase TXK (Homo sapiens) (UniProt P42681); details: Compound concentration 100.0 nM
[8] = biological target: Tyrosine-protein kinase Tec (Homo sapiens) (UniProt P42680); details: Compound concentration 100.0 nM
[9] = biological target: Atypical kinase COQ8A, mitochondrial (Homo sapiens) (UniProt Q8NI60); details: Compound concentration 100.0 nM
[10] = biological target: Membrane-associated tyrosine- and threonine-specific cdc2-inhibitory kinase (Homo sapiens) (UniProt Q99640); details: Compound concentration 100.0 nM
[11] = tested on: Receptor-type tyrosine-protein kinase FLT3 (Homo sapiens), P36888 [UNDEFINED MUTATION]; details: Compound concentration 100.0 nM
[12] = tested on: Proto-oncogene tyrosine-protein kinase receptor Ret (Homo sapiens), P07949 [V804L]; details: Compound concentration 100.0 nM
[13] = tested on: Phosphatidylinositol 4,5-bisphosphate 3-kinase catalytic subunit alpha isoform (Homo sapiens), P42336 [E545A]; details: Compound concentration 100.0 nM
[14] = biological target: Proto-oncogene tyrosine-protein kinase receptor Ret (Homo sapiens) (UniProt P07949); details: Compound concentration 100.0 nM
[15] = biological target: Serine/threonine-protein kinase 33 (Homo sapiens) (UniProt Q9BYT3); details: Compound concentration 100.0 nM
[16] = biological target: D(1A) dopamine receptor (Homo sapiens) (UniProt P21728); details: Compound concentration 10.0 uM
[17] = biological target: Testis-specific serine/threonine-protein kinase 1 (Homo sapiens) (UniProt Q9BXA7); details: Compound concentration 100.0 nM
Testis-specific serine/threonine-protein kinase 1 (Homo sapiens), sequence (Q9BXA7 whole entry): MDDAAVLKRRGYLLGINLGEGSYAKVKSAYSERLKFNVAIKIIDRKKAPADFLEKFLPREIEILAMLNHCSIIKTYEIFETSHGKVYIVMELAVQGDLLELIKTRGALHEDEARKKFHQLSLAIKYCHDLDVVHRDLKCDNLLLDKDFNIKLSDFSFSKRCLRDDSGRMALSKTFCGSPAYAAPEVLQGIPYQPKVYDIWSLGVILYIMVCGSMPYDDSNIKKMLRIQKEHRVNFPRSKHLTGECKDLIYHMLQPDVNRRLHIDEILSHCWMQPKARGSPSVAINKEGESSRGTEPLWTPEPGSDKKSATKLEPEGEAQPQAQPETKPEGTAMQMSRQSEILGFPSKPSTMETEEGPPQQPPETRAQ

[18] = biological target: Beta-3 adrenergic receptor (Homo sapiens) (UniProt P13945); details: Compound concentration 10.0 uM
[19] = biological target: Serine/threonine-protein kinase SIK1 (Homo sapiens) (UniProt P57059); details: Compound concentration 100.0 nM
[20] = biological target: Mitogen-activated protein kinase 7 (Homo sapiens) (UniProt Q13164); details: Compound concentration 100.0 nM
[21] = biological target: Serine/threonine-protein kinase N2 (Homo sapiens) (UniProt Q16513); details: Compound concentration 100.0 nM
Serine/threonine-protein kinase N2 (Homo sapiens), sequence (Q16513 whole entry, looked up): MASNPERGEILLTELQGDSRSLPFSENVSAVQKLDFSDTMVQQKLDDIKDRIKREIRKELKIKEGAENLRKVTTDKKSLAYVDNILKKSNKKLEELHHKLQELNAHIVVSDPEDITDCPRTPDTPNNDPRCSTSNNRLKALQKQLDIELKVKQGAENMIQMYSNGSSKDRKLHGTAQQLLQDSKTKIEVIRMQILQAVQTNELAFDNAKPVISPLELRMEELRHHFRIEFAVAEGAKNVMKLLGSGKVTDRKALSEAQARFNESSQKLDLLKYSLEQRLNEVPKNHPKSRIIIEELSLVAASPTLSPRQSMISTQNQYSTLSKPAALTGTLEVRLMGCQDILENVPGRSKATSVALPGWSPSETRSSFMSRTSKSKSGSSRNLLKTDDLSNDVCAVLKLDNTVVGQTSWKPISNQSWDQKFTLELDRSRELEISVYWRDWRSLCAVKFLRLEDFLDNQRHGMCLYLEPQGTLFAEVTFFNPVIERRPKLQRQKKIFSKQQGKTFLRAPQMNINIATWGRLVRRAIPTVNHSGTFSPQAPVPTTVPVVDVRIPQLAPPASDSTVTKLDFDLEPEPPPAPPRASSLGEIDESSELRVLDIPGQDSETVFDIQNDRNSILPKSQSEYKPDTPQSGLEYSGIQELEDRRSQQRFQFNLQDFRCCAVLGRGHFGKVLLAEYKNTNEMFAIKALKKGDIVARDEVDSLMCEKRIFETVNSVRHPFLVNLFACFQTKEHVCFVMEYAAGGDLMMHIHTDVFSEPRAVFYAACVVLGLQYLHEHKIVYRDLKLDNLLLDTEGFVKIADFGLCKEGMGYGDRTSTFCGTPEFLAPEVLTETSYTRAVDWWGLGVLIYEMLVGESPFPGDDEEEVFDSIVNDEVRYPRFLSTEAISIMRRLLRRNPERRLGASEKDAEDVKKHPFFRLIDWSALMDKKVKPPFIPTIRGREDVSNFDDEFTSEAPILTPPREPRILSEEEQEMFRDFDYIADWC

[22] = biological target: Interleukin-1 receptor-associated kinase 4 (Homo sapiens) (UniProt Q9NWZ3); details: Compound concentration 100.0 nM
[23] = biological target: Serine/threonine-protein kinase D1 (Homo sapiens) (UniProt Q15139); details: Compound concentration 100.0 nM
Serine/threonine-protein kinase D1 (Homo sapiens), sequence (Q15139 whole entry): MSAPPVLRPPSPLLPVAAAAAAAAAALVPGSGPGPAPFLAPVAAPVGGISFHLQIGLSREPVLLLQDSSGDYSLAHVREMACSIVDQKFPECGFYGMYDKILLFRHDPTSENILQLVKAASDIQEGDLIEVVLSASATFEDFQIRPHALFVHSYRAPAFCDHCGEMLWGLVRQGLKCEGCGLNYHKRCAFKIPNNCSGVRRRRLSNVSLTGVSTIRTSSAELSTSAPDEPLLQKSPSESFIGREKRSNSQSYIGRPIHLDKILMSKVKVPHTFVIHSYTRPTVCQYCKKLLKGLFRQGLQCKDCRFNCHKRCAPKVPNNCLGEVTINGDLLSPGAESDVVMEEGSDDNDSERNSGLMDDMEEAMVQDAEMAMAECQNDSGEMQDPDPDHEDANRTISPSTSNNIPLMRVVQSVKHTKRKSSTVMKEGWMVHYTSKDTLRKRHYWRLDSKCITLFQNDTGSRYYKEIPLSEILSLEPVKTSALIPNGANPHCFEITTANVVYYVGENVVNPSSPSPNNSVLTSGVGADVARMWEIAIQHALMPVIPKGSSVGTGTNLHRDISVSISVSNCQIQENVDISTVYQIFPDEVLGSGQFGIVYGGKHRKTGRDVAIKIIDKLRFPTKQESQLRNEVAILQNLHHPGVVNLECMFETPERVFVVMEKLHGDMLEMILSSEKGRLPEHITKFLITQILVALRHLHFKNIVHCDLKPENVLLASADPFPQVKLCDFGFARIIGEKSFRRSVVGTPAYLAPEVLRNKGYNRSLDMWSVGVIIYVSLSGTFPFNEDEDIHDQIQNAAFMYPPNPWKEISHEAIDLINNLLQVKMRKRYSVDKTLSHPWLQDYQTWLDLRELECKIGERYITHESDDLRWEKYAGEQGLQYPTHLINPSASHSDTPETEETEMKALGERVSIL

[24] = biological target: Rho-associated protein kinase 2 (Homo sapiens) (UniProt O75116); details: Compound concentration 100.0 nM
[25] = biological target: Calcium/calmodulin-dependent protein kinase type 1D (Homo sapiens) (UniProt Q8IU85); details: Compound concentration 100.0 nM
[26] = biological target: Mast/stem cell growth factor receptor Kit (Homo sapiens) (UniProt P10721); details: Compound concentration 100.0 nM
[27] = biological target: Mitogen-activated protein kinase 15 (Homo sapiens) (UniProt Q8TD08); details: Compound concentration 100.0 nM
[28] = biological target: Muscarinic acetylcholine receptor M1 (Homo sapiens) (UniProt P11229); details: Compound concentration 10.0 uM
[29] = biological target: Protein kinase C epsilon type (Homo sapiens) (UniProt Q02156); details: Compound concentration 100.0 nM
[30] = biological target: Vascular endothelial growth factor receptor 1 (Homo sapiens) (UniProt P17948); details: Compound concentration 100.0 nM
[31] = biological target: Ephrin type-B receptor 3 (Homo sapiens) (UniProt P54753); details: Compound concentration 100.0 nM
Ephrin type-B receptor 3 (Homo sapiens), sequence (P54753 whole entry): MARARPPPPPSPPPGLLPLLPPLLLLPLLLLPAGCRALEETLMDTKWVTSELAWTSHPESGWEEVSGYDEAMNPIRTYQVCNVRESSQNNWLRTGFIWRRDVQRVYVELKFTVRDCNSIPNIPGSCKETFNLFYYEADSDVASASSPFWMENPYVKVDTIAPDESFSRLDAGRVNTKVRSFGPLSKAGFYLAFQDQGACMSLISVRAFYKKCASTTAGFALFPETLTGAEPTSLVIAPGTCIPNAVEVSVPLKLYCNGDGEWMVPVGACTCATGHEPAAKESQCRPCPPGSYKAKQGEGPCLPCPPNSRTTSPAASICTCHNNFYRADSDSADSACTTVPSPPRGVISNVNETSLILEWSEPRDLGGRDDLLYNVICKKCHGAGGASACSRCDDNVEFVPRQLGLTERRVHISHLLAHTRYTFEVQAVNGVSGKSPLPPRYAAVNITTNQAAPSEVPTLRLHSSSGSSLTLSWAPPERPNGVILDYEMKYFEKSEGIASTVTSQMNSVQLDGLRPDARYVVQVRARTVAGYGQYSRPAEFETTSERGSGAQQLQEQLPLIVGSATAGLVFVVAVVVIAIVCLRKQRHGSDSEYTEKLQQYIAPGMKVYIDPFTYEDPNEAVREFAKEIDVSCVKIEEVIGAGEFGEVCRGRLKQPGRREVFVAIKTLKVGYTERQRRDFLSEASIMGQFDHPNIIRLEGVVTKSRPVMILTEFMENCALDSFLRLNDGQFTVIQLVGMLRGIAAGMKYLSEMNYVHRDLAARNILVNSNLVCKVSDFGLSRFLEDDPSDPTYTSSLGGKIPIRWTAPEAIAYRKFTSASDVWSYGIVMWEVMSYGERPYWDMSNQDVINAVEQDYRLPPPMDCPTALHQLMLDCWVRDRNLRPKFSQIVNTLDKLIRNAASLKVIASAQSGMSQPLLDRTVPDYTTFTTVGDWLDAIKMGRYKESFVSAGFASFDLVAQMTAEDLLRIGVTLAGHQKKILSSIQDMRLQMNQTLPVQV

[32] = biological target: Dual specificity protein kinase CLK4 (Homo sapiens) (UniProt Q9HAZ1); details: Compound concentration 100.0 nM
[33] = biological target: Casein kinase I isoform delta (Homo sapiens) (UniProt P48730); details: Compound concentration 100.0 nM
[34] = biological target: Serine/threonine-protein kinase DCLK3 (Homo sapiens) (UniProt Q9C098); details: Compound concentration 100.0 nM
Serine/threonine-protein kinase DCLK3 (Homo sapiens), sequence (Q9C098 whole entry): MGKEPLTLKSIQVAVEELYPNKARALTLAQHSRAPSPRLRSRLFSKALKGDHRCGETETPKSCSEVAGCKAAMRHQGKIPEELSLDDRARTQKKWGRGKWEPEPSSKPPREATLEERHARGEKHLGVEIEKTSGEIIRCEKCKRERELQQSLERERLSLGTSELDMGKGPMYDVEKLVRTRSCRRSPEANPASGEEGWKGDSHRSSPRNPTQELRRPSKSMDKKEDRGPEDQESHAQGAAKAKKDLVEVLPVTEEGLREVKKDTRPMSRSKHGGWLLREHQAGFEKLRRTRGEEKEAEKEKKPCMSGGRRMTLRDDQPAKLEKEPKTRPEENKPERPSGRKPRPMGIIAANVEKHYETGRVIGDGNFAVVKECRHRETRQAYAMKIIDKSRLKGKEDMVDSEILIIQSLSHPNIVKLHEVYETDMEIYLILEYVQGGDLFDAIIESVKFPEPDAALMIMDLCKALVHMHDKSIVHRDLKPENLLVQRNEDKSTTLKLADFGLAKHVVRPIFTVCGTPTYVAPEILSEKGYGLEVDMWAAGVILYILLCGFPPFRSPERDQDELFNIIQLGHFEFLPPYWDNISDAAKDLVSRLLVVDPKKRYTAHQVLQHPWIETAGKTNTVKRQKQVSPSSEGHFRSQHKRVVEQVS

[35] = biological target: Dual specificity protein kinase CLK2 (Homo sapiens) (UniProt P49760); details: Compound concentration 100.0 nM
[36] = biological target: BMP-2-inducible protein kinase (Homo sapiens) (UniProt Q9NSY1); details: Compound concentration 100.0 nM
[37] = biological target: Myosin light chain kinase family member 4 (Homo sapiens) (UniProt Q86YV6); details: Compound concentration 100.0 nM
[38] = biological target: NT-3 growth factor receptor (Homo sapiens) (UniProt Q16288); details: Compound concentration 100.0 nM
[39] = biological target: Non-receptor tyrosine-protein kinase TYK2 (Homo sapiens) (UniProt P29597); details: Compound concentration 100.0 nM
[40] = biological target: Dual specificity protein kinase CLK1 (Homo sapiens) (UniProt P49759); details: Compound concentration 100.0 nM
[41] = biological target: Hepatocyte growth factor receptor (Homo sapiens) (UniProt P08581); details: Compound concentration 100.0 nM
[42] = biological target: Calcium/calmodulin-dependent protein kinase type 1 (Homo sapiens) (UniProt Q14012); details: Compound concentration 100.0 nM
[43] = biological target: Serine/threonine-protein kinase 32A (Homo sapiens) (UniProt Q8WU08); details: Compound concentration 100.0 nM
[44] = biological target: Mitogen-activated protein kinase kinase kinase kinase 1 (Homo sapiens) (UniProt Q92918); details: Compound concentration 100.0 nM
[45] = biological target: 5-hydroxytryptamine receptor 2C (Homo sapiens) (UniProt P28335); details: Compound concentration 10.0 uM

Serine/threonine-protein kinase LATS1 (Homo sapiens), sequence (O95835 whole entry): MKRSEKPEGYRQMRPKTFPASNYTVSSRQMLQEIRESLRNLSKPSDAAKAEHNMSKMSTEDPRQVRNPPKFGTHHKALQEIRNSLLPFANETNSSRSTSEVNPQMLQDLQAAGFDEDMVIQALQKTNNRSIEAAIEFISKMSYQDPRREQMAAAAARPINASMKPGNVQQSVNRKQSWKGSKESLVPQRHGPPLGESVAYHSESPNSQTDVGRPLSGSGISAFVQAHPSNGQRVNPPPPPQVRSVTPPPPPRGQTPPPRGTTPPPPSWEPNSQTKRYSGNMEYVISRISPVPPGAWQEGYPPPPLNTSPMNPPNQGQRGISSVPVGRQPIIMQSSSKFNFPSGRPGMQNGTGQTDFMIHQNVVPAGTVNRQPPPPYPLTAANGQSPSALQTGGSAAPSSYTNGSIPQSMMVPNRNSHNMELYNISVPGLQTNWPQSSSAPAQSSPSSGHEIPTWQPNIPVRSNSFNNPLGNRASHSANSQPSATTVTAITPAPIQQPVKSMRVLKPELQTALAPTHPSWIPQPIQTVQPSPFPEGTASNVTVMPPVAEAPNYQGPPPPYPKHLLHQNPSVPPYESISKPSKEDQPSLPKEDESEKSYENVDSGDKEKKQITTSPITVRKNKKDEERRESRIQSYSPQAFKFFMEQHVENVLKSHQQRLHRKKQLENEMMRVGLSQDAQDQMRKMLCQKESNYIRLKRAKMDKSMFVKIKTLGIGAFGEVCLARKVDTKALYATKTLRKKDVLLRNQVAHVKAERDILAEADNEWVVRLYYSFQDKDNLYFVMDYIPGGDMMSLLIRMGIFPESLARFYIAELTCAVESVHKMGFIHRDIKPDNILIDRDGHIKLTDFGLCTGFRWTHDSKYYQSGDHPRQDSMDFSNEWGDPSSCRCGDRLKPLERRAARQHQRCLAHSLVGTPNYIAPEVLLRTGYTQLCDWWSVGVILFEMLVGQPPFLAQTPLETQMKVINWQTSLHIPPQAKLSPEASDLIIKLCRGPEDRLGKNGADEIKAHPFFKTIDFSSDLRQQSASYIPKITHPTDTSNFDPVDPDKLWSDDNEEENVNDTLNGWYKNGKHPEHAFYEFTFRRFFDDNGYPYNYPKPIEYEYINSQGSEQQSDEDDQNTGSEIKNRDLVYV

O=C(NCCCC1CCCCC1)c1ccc(CNC(=O)c2cnn(-c3ccccc3)c2C(F)(F)F)cc1 [SR-321]
inactive: residual activity [1] 100% | residual activity [2] 96% | residual activity [3] 89% | residual activity [4] 70% | residual activity [5] 100% | residual activity [6] 96% | residual activity [7] 100% | residual activity [8] 94% | residual activity [9] 100% | residual activity [10] 77% | residual activity [11] 100% | residual activity [12] 100% | residual activity [13] 100% | residual activity [14] 89% | residual activity [15] 87% | inhibition [16] 5.56% | residual activity [17] 94% | inhibition [18] 21.7% | residual activity [19] 91% | residual activity [20] 100% | residual activity [21] 100% | residual activity [22] 100% | residual activity [23] 100% | residual activity [24] 100% | residual activity [25] 100% | residual activity [26] 100% | residual activity [27] 100% | inhibition [28] 11.8% | residual activity [29] 88% | residual activity [30] 100% | residual activity [31] 79% | residual activity [32] 100% | residual activity [33] 100% | residual activity [34] 100% | residual activity [35] 100% | residual activity [36] 100% | residual activity [37] 100% | residual activity [38] 100% | residual activity [39] 100% | residual activity [40] 96% | residual activity [41] 100% | residual activity [42] 100% | residual activity [43] 76% | residual activity [44] 100% | inhibition [45] 6.21%

Nc1c(C(=O)NCc2ccc(C(=O)NCCCC3CCCCC3)cc2)cnn1-c1ccccc1 [SR-318]
inactive: residual activity [1] 100% | residual activity [2] 100% | residual activity [3] 100% | residual activity [4] 81% | residual activity [5] 100% | residual activity [6] 96% | residual activity [7] 83% | residual activity [8] 100% | residual activity [9] 100% | residual activity [10] 100% | residual activity [11] 73% | residual activity [12] 100% | residual activity [13] 100% | residual activity [14] 89% | residual activity [15] 96% | inhibition [16] -5.64% | residual activity [17] 81% | inhibition [18] 21.8% | residual activity [19] 100% | residual activity [20] 78% | residual activity [21] 78% | residual activity [22] 100% | residual activity [23] 100% | residual activity [24] 100% | residual activity [25] 93% | residual activity [26] 100% | residual activity [27] 100% | inhibition [28] 31.1% | residual activity [29] 100% | residual activity [30] 100% | residual activity [31] 96% | residual activity [32] 96% | residual activity [33] 100% | residual activity [34] 100% | residual activity [35] 100% | residual activity [36] 100% | residual activity [37] 100% | residual activity [38] 97% | residual activity [39] 100% | residual activity [40] 100% | residual activity [41] 95% | residual activity [42] 100% | residual activity [43] 96% | residual activity [44] 99% | inhibition [45] 10%
